Measured values: patent US20150344457A1, “METHODS OF INHIBITING PRMT5” (EPIZYME, INC., priority 2012, published 2015)

Tested on: Z-138 cells
Test: Z-138 Methylation Assay (In Cell Western for symmetric di-methyl arginine and DNA content)
Format: cell-based
Conditions: Homo sapiens, Table D-2, read-out: ICW EC50
Outline: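 Z-138 cells at 50,000 cells/mL exposed to compound 96 h at 37 °C, then attached to poly-D-lysine plates, fixed with paraformaldehyde and probed with anti-symmetric di-methyl arginine plus DRAQ5 DNA stain. 800/700 nm ratio normalized to DMSO and 3 μM reference controls; IC50 from triplicate wells.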

EC50, 1 to 10 µM:
N#Cc1ccccc1-c1cccc(OCC(O)CN2CCc3ccccc3C2)c1 (stereo not drawn) [Compound D93], N#Cc1ccc(-c2cccc(OCC(O)CN3CCc4ccccc4C3)c2)cc1 (stereo not drawn) [Compound D94], Oc1cccc(-c2cccc(OCC(O)CN3CCc4ccccc4C3)c2)c1 (stereo not drawn) [Compound D95]
